Tests used:
Arabidopsis thaliana = test: Germination in the presence of mannitol or NaCl; format: in vivo; conditions: 50, 200, 300 mM mannitol
Experimental: First, the germination process, under conditions imitating the lack of water, such as presence of mannitol, and other conditions generating salt stress, was analyzed. FIGS. 11, 12 and 13 show the germination times of plants transformed according to the invention as compared to control ones. […] This effect is more remarked at higher concentrations of the carbohydrate.
When the germination tests were carried out in the presence of different concentrations of NaCl the obtained results were similar as in the case of mannitol.
The seeds from Arabidopsis thaliana were sterilized by washing with ethanol 70% (v/v) (1 min), chlorine 5%-SDS 1% (15 min) and sterile distilled water (3 times). Then the seeds were suspended in 8 ml of agar 0.1% and sowed in 150 mm Petri plates containing MS medium, with the addition of Gamborg's vitamins. The plates were maintained at 4° C. during two days and then placed into a culture chamber with controlled light and temperature (16 hours light at 24° C. and 8 hours darkness at 21° C.). The required illumination conditions (150-200 μE/m 2) were artificially obtained by keeping the plants at a distance of 25 cm from six fluorescent tubes, intercalating white light and Grolux tubes (from Sylvania) adjacently located.

Hahb-4 [1] = test: Hahb-4 expression in treated sunflower seedlings by RNAse protection; format: in vivo, Helianthus annuus
Description: We have analyzed the expression of Hahb-4 under different environmental conditions (i.e. water, osmotic, salt, cold, heat, and oxidative stress) by RNAse protection, which is more sensitive than the Northern technique (FIG. 2).
As many responses to water stress are mediated by ABA, we have also analyzed the effect of this hormone on the expression.
Helianthus annuus L. (sunflower cv. contiflor 15, from Zeneca, Balcarce, Argentina, or cv. Sunweed, from Rhône-Poulenc, Lyon, France) seeds were surface sterilized and grown on filter paper inside Petri dishes for a period of 4 d. Seedlings were then transferred to plastic supports containing Hoagland's medium and grown until they had six leaves (approximately 3 weeks). Water stress was imposed either by transferring 4-day-old-seedlings to Petri dishes with dry filter paper or by removing plants from the hydroponic culture.
For RNAse protection analysis, total RNA (15 μg) prepared as described (Almoguera C., et. al.; Plant molecular Biology 19: 781-792, 1992) was hybridized to a specific Hahb-4 riboprobe synthesized by in vitro transcription using T3 RNA polymerase and [^32P]CTP following the instructions of the manufacturer (Boehringer Mannheim, Mannheim, Germany). The template consisted of an insert corresponding to the coding region between +81 and +429 (FIG. 1 and SEQ ID NO 1) cloned into the SpeI/BamHI sites of pBlue-script SK^−. The BamHI site, not present in the cDNA, derives from amplification with oligonucleotide H41 as described above. Restriction digestion of this template DNA with EcoRI allows transcription of a 411-nucleotide RNA probe that contains 63 nucleotides from the vector (from the T3 promoter to the SpeI site in the polylinker, and from the BamHI to the EcoRI sites). Conditions for riboprobe preparation, hybridization, digestion with RNAse A, and subsequent electrophoretic analysis of protected RNA fragments were as previously described (Coca M: A: et. al.; Plant Molecular Biology 31: 863-876, 1996, herein incorporated as reference).

[2] = system: 5′-CAAT(A/T)ATTG-3′ DNA sequence; test: Electrophoretic mobility shift assay with nuclear extracts of treated seedlings; format: binding, Helianthus annuus; conditions: nuclear extracts from ABA-treated 4-day-old seedlings
Experimental: The presence of functional DNA binding proteins in sunflower nuclei was analyzed by electrophoretic mobility shift assays using a synthetic double-stranded oligonucleotide comprising the sequence 5′-CAAT(A/T)ATTG-3′ (SEQ ID NO:23) bound in vitro by Hahb-4 expressed in bacteria. […] On the contrary, only the slower-migrating complex increased when plants were subjected to water stress. Formation of both complexes was almost completely abolished by an excess of the same unlabelled DNA, but not by an equivalent amount of a similar DNA containing the sequence 5′-CACT(A/T)AGTG-3′ (SEQ ID NO:31) (changed positions underlined) not bound by Hahb-4 (FIG. 6).
Sunflower nuclei and nuclear extracts were prepared from control, water-stressed, or ABA-treated seedlings (4-days-old) according to the technique described in Maliga et al. (Methods in Plant Molecular Biology. A Laboratory Course Manual, pages 233-260. Cold Spring Harbor Laboratory Press, Cold Spring Harbor, N.Y., USA, 1995, herein incorporated by reference). Protein patterns were analyzed by SDS-polyacryla-mide gel electrophoresis (PAGE) and total protein concentration was measured as described Sedmak J. et. al., Analytical Biochemistry 79: 544-552, 1977. […]

Hahb-4 [3] = test: Time dependence of the response of Hahb-4 to ABA by Northern analysis; format: in vivo, Helianthus annuus; conditions: 100 μM ABA
Experimental: Total RNA (20 μg) was isolated from seedlings that were either untreated, or treated with 100 μM ABA for different times as indicated in each lane. In the lower panel, the same filter was hybridized with an rRNA probe as a control for RNA loading and transfer.
The high level of induction observed under water stress conditions allowed us to analyze the time-dependent increase in transcript levels by Northern experiments. […] After this time, no further increments in Hahb-4 transcript levels were observed. Re-hydration of the seedlings lowered Hahb-4 transcript levels more slowly, with only about a 50% decrease after 2 h (FIG. 3, lanes 4 and 5). The effect of ABA treatment was also time dependent. […] The high Hahb-4 transcript levels of the invention are reverted after the re-hydration of the sunflower plants, thus indicating again that said gene participates in the response to the water stress.
Total RNA (20 μg) was denatured with formamide and formaldehyde, separated in a 1.5% (w/v) agarose/6% formaldehyde gel, and blotted onto nylon membranes (Hybond N; Amersham-Pharmacia, Buckinghamshire, UK) essentially as described by Sambrook, Fritsch & Maniatis (1989).
Hybridization was performed overnight at 65° C. in 6×SSC (1×SSC is 0.15 M NaCl, 0.015 M Na3-citrate, pH 7.0), 0.1% (w/v) polyvinylpirrolidone, 0.1% (w/v) bovine serum albumin, 0.1% (w/v) Ficoll, 0.5% (w/v) sodium dodecyl sulphate (SDS). […] The filters were autoradiographed using Bio-Max films and transcreen (Eastman Kodak, Rochester, N.Y., USA) overnight. To check the amount of total RNA loaded in each lane, filters were then re-probed with a 25S rRNA from Vicia faba under similar conditions as those described above, except that hybridization was performed at 62° C.

Compound	effect of mannitol on germination (Arabidopsis thaliana)	Hahb-4 expression (Hahb-4 [1]; 0.5 M mannitol during 4 h, 4-day-old seedlings)	Hahb-4 transcript levels (Hahb-4 [1]; 10 μM ABA)	Hahb-4 expression (Hahb-4 [1]; 100 μM ABA, 24 h, irrigated 4-day-old seedlings)	amount of both protein complexes binding the Hahb-4 target sequence [2]	Hahb-4 transcript levels after 24 h of treatment (Hahb-4 [3]; 24 h)	time of maximum response of Hahb-4 to ABA (Hahb-4 [3]; seedlings) [h]	time until response of Hahb-4 to ABA is detectable (Hahb-4 [3]; seedlings) [h]
OC[C@@H](O)[C@@H](O)[C@H](O)[C@H](O)CO [Mannitol, mannitol]	delays the germination	induced Hahb-4 expression, although at lower levels	–	–	–	–	–	–
CC1=CC(=O)CC(C)(C)[C@@]1(O)/C=C/C(C)=C\C(=O)O [ABA, abscisic acid]	–	–	smaller, but significant increase in transcript levels	induction was observed	significantly increased	still significantly high	3 to 6	≤ 1
